Experimental findings from patent US12312359B2 (Vitae Pharmaceuticals, LLC, priority 2016, dated 2025) are described below.

Assay [1] deals with human acute monocytic leukemia cell line MV-4-11. The assay can be described thus: Assay 2: cell proliferation assay (ATP quantitation, CellTiter-Glo), MV-4-11. Format: cell-based. The settings on record: Homo sapiens, MV4-11, 72 h, MV-4-11 cells. In outline:
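Read-out is CellTiter-Glo luminescence quantifying ATP. Compound exposure lasted 72 h at 37° C., 5% CO2, with 1.67×10^4 MV-4-11 cells per well in 10% FBS medium, alongside HL-60 toxicity-control cells.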
A general note: ATP-based viability assays read luminescence as a measure of living cells.

Assay [2] addresses T1, biotinylated wild-type menin and MLL-AF9 fusion protein (menin/MLL binding) (Homo sapiens, UniProt O00255).
T1 construct: made in house; host or cells: menin: E. coli; MLL-AF9-FLAG: HEK293 cells, used as cleared lysate
T1 sequence (O00255 1-610): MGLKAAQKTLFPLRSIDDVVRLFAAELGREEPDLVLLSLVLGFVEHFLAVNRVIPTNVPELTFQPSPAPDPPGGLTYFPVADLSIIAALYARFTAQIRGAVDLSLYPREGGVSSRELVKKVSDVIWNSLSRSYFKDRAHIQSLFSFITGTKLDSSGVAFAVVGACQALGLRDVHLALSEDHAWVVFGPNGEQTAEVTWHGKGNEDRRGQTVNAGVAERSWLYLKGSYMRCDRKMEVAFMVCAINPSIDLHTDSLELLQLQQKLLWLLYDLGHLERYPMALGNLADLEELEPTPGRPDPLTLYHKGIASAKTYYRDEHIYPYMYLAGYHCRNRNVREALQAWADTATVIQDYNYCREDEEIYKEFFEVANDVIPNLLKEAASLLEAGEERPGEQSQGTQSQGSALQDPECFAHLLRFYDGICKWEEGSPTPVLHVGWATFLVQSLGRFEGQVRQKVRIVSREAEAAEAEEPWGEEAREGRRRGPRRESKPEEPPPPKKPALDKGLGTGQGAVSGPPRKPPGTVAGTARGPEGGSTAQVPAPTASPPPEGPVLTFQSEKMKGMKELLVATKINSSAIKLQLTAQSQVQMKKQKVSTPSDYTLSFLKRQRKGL
The assay can be described thus: Assay 1: menin/MLL binding AlphaLISA assay, wild-type menin. The settings on record: Table 30; column head does not say wild-type or mutated menin. In outline: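 Compound was preincubated 30 min at room temperature with biotinylated menin (5 nM) and MLL-AF9-FLAG lysate from HEK293 cells, pH 7.4 buffer with 5% DMSO and DTT. Bead-based Alpha signal after 60 min with streptavidin donor and anti-FLAG acceptor beads; four-parameter logistic fit gave IC50.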

Turning to `CC(C)N(C(=O)c1cc(F)ccc1Oc1cncnc1N1CC2(CN(C(=O)Cc3ccc(C#N)cc3)C2)C1)C(C)C` [Example 116, 2-((4-(6-(2-(4-cyanophenyl)acetyl)-2,6-diazaspiro[3.3]heptan-2-yl)pyrimidin-5-yl)oxy)-5-fluoro-N,N-diisopropylbenzamide], the EC50 – broadly, the concentration at which the effect is half-maximal – in assay [1] was in the range of 100 to 1000 nM. Besides, in assay [2], the IC50 (commonly the midpoint of a concentration-inhibition curve) is under 100 nM.

In assay [1], `CCN(C(=O)C(C)C)c1cc(F)ccc1Oc1cncnc1N1CC2(CN(C(=O)C3Cc4ccc(S(C)(=O)=O)cc4C3)C2)C1` (stereo not drawn) [Example 117, N-ethyl-N-(5-fluoro-2-((4-(6-(5-(methylsulfonyl)-2,3-dihydro-1H-indene-2-carbonyl)-2,6diazaspiro[3.3]heptan-2-yl)pyrimidin-5-yl)oxy)phenyl)iso-butyramide] registered an EC50 of 100 to 1000 nM. This compound yielded an IC50 in assay [2] of under 100 nM.

On to `CC(C)c1ncncc1-c1cc(F)ccc1Oc1cncnc1N1CC2(CC(NCC34CC(C#N)(C3)C4)C2)C1` [Example 118, 3-(((2-(5-(4-fluoro-2-(4-isopropylpyrimidin-5-yl)phenoxy)pyrimidin-4-yl)-2-azaspiro[3.3]heptan-6-yl)amino)methyl)bi-cyclo[1.1.1]pentane-1-carbonitrile], for which the EC50 in assay [1] is 100 to 1000 nM. The compound also had an IC50 in assay [2] of under 100 nM.

In assay [1], `CCN(C(=O)C(C)C)c1cc(F)ccc1Oc1cncnc1N1CC2(CN(C(=O)Cc3ccc(S(C)(=O)=O)cc3)C2)C1` [Example 119, N-ethyl-N-(5-fluoro-2-((4-(6-(2-(4-(methylsulfonyl)phenyl)acetyl)-2,6-diazaspiro[3.3]heptan-2-yl)pyrimidin-5-yl)oxy)phenyl)isobutyramide] registered an EC50 of 100 to 1000 nM. The IC50 in assay [2] was under 100 nM.

In turn, `CCN(C(=O)C(C)C)c1cc(F)ccc1Oc1cncnc1N1CC2(CN(C(=O)C3Cc4ccc(Br)cc4C3)C2)C1` (stereo not drawn) [Example 120, N-(2-((4-(6-(5-bromo-2,3-dihydro-1H-indene-2-carbonyl)-2,6-diazaspiro [3.3]heptan-2-yl)pyrimidin-5-yl)oxy)-5-fluorophenyl)-N-ethylisobutyramide] returned a concentration giving a half-maximal response (EC50) in assay [1] of under 100 nM. In assay [2], the IC50 is under 100 nM.

The compound `CCN(C(=O)C(C)C)c1cc(F)ccc1Oc1cncnc1N1CC2(CN(CC3CCOCC3)C2)C1` [Example 121, N-ethyl-N-(5-fluoro-2-((4-(6-((tetrahydro-2H-pyran-4-yl)methyl)-2,6-diazaspiro[3.3]heptan-2-yl)pyrimidin-5-yl)oxy)phenyl)isobutyramide] displayed an EC50 in assay [1] of 100 to 1000 nM. The same compound registered an IC50 in assay [2] of under 100 nM.

As for `CC(C)N(C(=O)c1cc(F)ccc1Oc1cncnc1N1CCC2(CCN(Cc3ccc4[nH]c(=O)[nH]c4c3)C2)C1)C1CC1` (stereo not drawn) [Example 122, N-cyclopropyl-5-fluoro-N-isopropyl-2-((4-(7-((2-oxo-2,3-dihydro-1H-benzo[d]imidazol-5-yl)methyl)-2,7-diazaspiro[4.4]nonan-2-yl)pyrimidin-5-yl)oxy)benzamide], the EC50 in assay [1] is under 100 nM. Moreover, the IC50 in assay [2] was under 100 nM.

In assay [1], `CC(=O)NCCn1c(=O)[nH]c2cc(CN3CCC4(CCN(c5ncncc5Oc5ccc(F)cc5C(=O)N(C)C(C)C)C4)C3)ccc21` (stereo not drawn) [Example 123, 2-((4-(7-((1-(2-acetamidoethyl)-2-oxo-2,3-dihydro-1H-benzo[d]imidazol-5-yl)methyl)-2,7-diazaspiro[4.4]nonan-2-yl)pyrimidin-5-yl)oxy)-5-fluoro-N-isopropyl-N-methylbenzamide] gave an EC50 of at least 1000 nM. For the same compound, the IC50 in assay [2] was under 100 nM.

Consider `CC(C)N(C)C(=O)c1cc(F)ccc1Oc1cncnc1N1CCC2(CCN(Cc3ccc4c(c3)[nH]c(=O)n4CCN(C)C)C2)C1` (stereo not drawn) [Example 124, 2-((4-(7-((1-(2-(dimethylamino)ethyl)-2-oxo-2,3-dihydro-1H-benzo[d]imidazol-5-yl)methyl)-2,7-diazaspiro[4.4]nonan-2-yl)pyrimidin-5-yl)oxy)-5-fluoro-N-isopropyl-N-methylbenzamide], for which the EC50 in assay [1] lay in the range of 100 to 1000 nM. The IC50 in assay [2] is under 100 nM.
